# Source: US8318812B2, “Therapeutic agents for the treatment of lymphoid malignancies” (The Ohio State University Research Foundation, priority 2006, dated 2012)
# Legend:
# PP2A = PP2A activity (malachite green phosphatase assay) in lysates of CLL cells; assay type: cell-based, Human; conditions: 10 uM FTY720
# Protocol: PP2A Activity: The protein phosphatase activity of total cellular lysate was determined by measuring the generation of free PO4 from the threonine phosphopeptide using the malachite green-phosphate complex assay as described by the manufacturer (Upstate, Charlottesville, […].). Cell lysates were prepared in a low detergent lysis buffer (1% Nonidet P-40, 10 mM HEPES, 0.5M NaCl, 10% Glycerol, 1 mM PMSF, 5 mM Benzamidine, 10 μg/ml leupeptin). The phosphatase assay was performed in a PP2A-specific reaction buffer (Upstate) using 750 μM phosphopeptide substrate. After 30-min incubation at 30° C. malachite dye was added, and free phosphate was measured by optical density at 650 nm. To avoid variability among different immunoprecipitated samples, the phosphatase activities were normalized with the amount of PP2A immunoprecipitated, as detected and quantified by western blot analysis of each treatment group.
# In order to determine if FTY720 induced activation of PP2A enzyme in CD19^+ B cells from CLL patients were treated with 10 uM FTY720 for 0, 1, 2, 3, 4 and 15 hrs and the PP2A activity in the lysates were quantified using a functional assay following immunoprecipitation of PP2A enzyme. As reported previously in other systems, FTY720 induced a consistent 2-3 fold increase in PP2A activation with the peak response observed at 4 hour post treatment (FIG. 6a). […] Similar phenomenon was also observed in Ramos B cell line. FTY720 induced activation of PP2A in Ramos cell line as early as 3 hours and this induced PP2A activity was inhibited by okadaic acid (FIG. 7a-b).
# Jeko cells = experiment: Annexin V/PI toxicity in Jeko cells; assay type: cell-based; conditions: Homo sapiens, WinNolin sigmoid inhibitory model
# Protocol: (§1) Primary MCL cells were isolated from PBMC (with informed patient consent under a protocol approved by IRB) as described before. All the MCL patients were identified as outlined by the World Health Organization (WHO) classification. Human mantle cell lymphoma patient cell lines (Mino and Jeko) were obtained from Dr. Raymond Lai. Primary cells or MCL cell lines were incubated in RPMI 1640 media, supplemented with 10%-20% heat-inactivated fetal bovine serum, 2 mM L-glutamine and penicillin (100 U/mL)/streptomycin ([…]) at 37° C. in an atmosphere of 5% CO2. FTY720 was synthesized as previously described. Toxicity was determined by flow cytometry using Annexin-V-FITC and Propidium Iodide (PI) staining. Apoptotic cells were identified as Annexin-V+ and/or PI+ cells. Cells excluding both FITC and PI were considered viable. Western Blotting was performed as described previously using indicated antibodies. The PARP (Ab-2) and Caspase 9 antibodies were purchased from Oncogene/Calbiochem/EMD Biosciences (San Diego, Calif.). Cyclin D1, Akt, Actin, Mcl-1, p-ERK, ERK and Bcl-2 were obtained from Santa Cruz biotech (Santa Cruz, Calif.).
# Several therapeutic agents, including fludarabine, chlorambucil, 2-chloro-2-deoxyadenosine and glucocorticoids, induce toxicity in B cell malignancies through activating caspases, the cysteine proteases of CED3/ICE family. […]
# Cyclin D1 = experiment: Western blot of Cyclin D1 in Mino cell line; assay type: cell-based, Human
# Protocol: as §1, with “The PARP (Ab-2) and Caspase 9 antibodies were purchased from Oncogene/Calbiochem/EMD Biosciences (San Diego, Calif.). Cyclin D1, Akt, Actin, Mcl-1, p-ERK, ERK and Bcl-2 were obtained from Santa Cruz biotech (Santa Cruz, Calif.).” left out
# FTY720 induced apoptosis is associated with down-modulation of Cyclin D1 and Akt. […] To determine if the FTY720 induced apoptosis is mediated through modulation of these targets relevant to the pathogenesis of the disease, we evaluated the effect of FTY720 on levels of Cyclin D1, p-Akt and Akt proteins by Wester Blotting analysis using specific antibodies in primary MCL cells and cell lines. […]
smiles,measurement,setting,value
"CCCCCCCCc1ccc(CCC(N)(CO)CO)cc1.Cl [FTY720, 2-Amino-2-[2-(4-octylphenyl)ethyl]propane 1,3-diol hydrochloride]",increase in PP2A activation,PP2A,2-3 fold
same,time of peak PP2A response,PP2A,4 h
same,IC50,Jeko cells,4.46 µM
same,reduction in Cyclin D1,Cyclin D1,pronounced inhibition seen as early as 24 hrs
